Reference: patent publication US20250144094A1 (Erasca, Inc., priority 2021, published 2025)

The compounds below were run against Recombinant human ULK1 (1-649) (Homo sapiens (Human), UniProt O75385) (assay: ULK1 ADP Glo kinase activity assay, new method (ULKtide peptide substrate)). Conditions: 25° C., 40 minutes, read-out: ULK1 biochemical IC50.
Recombinant human ULK1 (1-649), sequence (O75385 1-649): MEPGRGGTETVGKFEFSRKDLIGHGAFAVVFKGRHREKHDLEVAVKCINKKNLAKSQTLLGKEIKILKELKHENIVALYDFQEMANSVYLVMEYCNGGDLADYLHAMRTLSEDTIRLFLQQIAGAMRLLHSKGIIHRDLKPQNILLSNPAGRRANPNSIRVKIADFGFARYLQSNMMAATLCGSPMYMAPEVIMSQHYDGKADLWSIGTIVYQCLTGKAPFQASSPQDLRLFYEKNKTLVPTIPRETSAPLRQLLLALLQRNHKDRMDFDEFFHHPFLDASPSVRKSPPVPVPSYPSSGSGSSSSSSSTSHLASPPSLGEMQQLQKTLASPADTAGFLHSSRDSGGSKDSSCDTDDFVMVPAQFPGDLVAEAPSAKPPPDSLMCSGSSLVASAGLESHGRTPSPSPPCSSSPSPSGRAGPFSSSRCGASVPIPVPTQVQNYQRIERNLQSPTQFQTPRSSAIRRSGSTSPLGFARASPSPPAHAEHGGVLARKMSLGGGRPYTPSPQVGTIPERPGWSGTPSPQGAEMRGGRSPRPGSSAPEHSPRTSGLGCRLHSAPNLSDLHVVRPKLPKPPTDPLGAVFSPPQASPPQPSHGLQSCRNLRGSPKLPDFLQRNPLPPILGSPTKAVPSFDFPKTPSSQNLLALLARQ
Procedure, shortened: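 GST-tagged human ULK1 (1-649) from Sf9 cells was reacted with ULKtide peptide and ATP for 40 min at 25 °C across 12-point compound dilutions from 10 μM. ADP formed was quantified by ADP-Glo luminescence; IC50 came from four-parameter fits relative to DMSO controls.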
`CCc1cc2c(cc1Nc1ncc(C(F)(F)F)c(-c3cc4c(s3)C(=O)N(C3CC3)CCS4(=O)=O)n1)CCNC2` [Example 207, 4-cyclopropyl-7-(2-((7-ethyl-1,2,3,4-tetrahydroisoquinolin-6-yl)amino)-5-(trifluoromethyl)pyrimidin-4-yl)-3,4-dihydrothieno[2,3-f][1,4]thiazepin-5(2H)-one 1,1-dioxide] gave an IC50 of at most 5 nM. `CCc1cc2c(cc1Nc1ncc(C(F)(F)F)c(-c3cc4c(s3)C(=O)N(C3CCC3)CCS4(=O)=O)n1)CCNC2` [Example 208, 4-cyclobutyl-7-(2-((7-ethyl-1,2,3,4-tetrahydroisoquinolin-6-yl)amino)-5-(trifluoromethyl)pyrimidin-4-yl)-3,4-dihydrothieno[2,3-f][1,4]thiazepin-5(2H)-one 1,1-dioxide] was tested, and the IC50 was at most 5 nM. For `O=C1c2sc(-c3nc(Nc4cc5c(cc4C4CC4)CNCC5)ncc3C(F)(F)F)cc2S(=O)(=O)CCN1C1CC1` [Example 209, 4-cyclopropyl-7-(2-((7-cyclopropyl-1,2,3,4-tetrahydroisoquinolin-6-yl)amino)-5-(trifluoromethyl)pyrimidin-4-yl)-3,4-dihydrothieno[2,3-f][1,4]thiazepin-5(2H)-one 1,1-dioxide], the IC50 was at most 5 nM. `O=C1c2sc(-c3nc(Nc4cc5c(cc4Cl)CNCC5)ncc3C(F)(F)F)cc2S(=O)(=O)CCN1C1COC1` [Example 210, 7-(2-((7-chloro-1,2,3,4-tetrahydroisoquinolin-6-yl)amino)-5-(trifluoromethyl)pyrimidin-4-yl)-4-(oxetan-3-yl)-3,4-dihydrothieno[2,3-f][1,4]thiazepin-5(2H)-one 1,1-dioxide] gave an IC50 of at most 5 nM. In the case of `CCN1CCc2cc(Cl)c(Nc3ncc(C(F)(F)F)c(-c4cc5c(s4)C(=O)N(C)CCS5(=O)=O)n3)cc2C1` [Example 211, 7-(2-((6-chloro-2-ethyl-1,2,3,4-tetrahydroisoquinolin-7-yl)amino)-5-(trifluoromethyl)pyrimidin-4-yl)-4-methyl-3,4-dihydrothieno[2,3-f][1,4]thiazepin-5(2H)-one 1,1-dioxide], the IC50 is reported as 10 to 50 nM. Work on `CCc1cc2c(cc1Nc1ncc(C(F)(F)F)c(-c3cc4c(s3)C(=O)N(C)CCS4(=O)=O)n1)CNCC2` [Example 212, 7-(2-((6-ethyl-1,2,3,4-tetrahydroisoquinolin-7-yl)amino)-5-(trifluoromethyl)pyrimidin-4-yl)-4-methyl-3,4-dihydrothieno[2,3-f][1,4]thiazepin-5(2H)-one 1,1-dioxide] yielded an IC50 of at most 5 nM. `CCN1CCc2cc(Nc3ncc(C(F)(F)F)c(-c4cc5c(s4)C(=O)N(C4CC4)CCS5(=O)=O)n3)c(Cl)cc2C1` [Example 213, 7-(2-((7-chloro-2-ethyl-1,2,3,4-tetrahydroisoquinolin-6-yl)amino)-5-(trifluoromethyl)pyrimidin-4-yl)-4-cyclopropyl-3,4-dihydrothieno[2,3-f][1,4]thiazepin-5(2H)-one 1,1-dioxide] was tested, and the IC50 was at most 5 nM. In the case of `O=C1c2sc(-c3nc(Nc4cc5c(cc4Cl)CCNC5)ncc3C(F)(F)F)cc2S(=O)(=O)CCN1CC(F)(F)F` [Example 214, 7-(2-((6-chloro-1,2,3,4-tetrahydroisoquinolin-7-yl)amino)-5-(trifluoromethyl)pyrimidin-4-yl)-4-(2,2,2-trifluoroethyl)-3,4-dihydrothieno[2,3-f][1,4]thiazepin-5(2H)-one 1,1-dioxide], the IC50 is reported as at most 5 nM. Work on `O=C1c2sc(-c3nc(Nc4cc5c(cc4C4CC4)CNCC5)ncc3C(F)(F)F)cc2S(=O)(=O)CCN1CC(F)(F)F` [Example 215, 7-(2-((7-cyclopropyl-1,2,3,4-tetrahydroisoquinolin-6-yl)amino)-5-(trifluoromethyl)pyrimidin-4-yl)-4-(2,2,2-trifluoroethyl)-3,4-dihydrothieno[2,3-f][1,4]thiazepin-5(2H)-one 1,1-dioxide] yielded an IC50 of at most 5 nM. `Cc1cc2c(cc1Nc1ncc(C(F)(F)F)c(-c3cc4c(s3)C(=O)N(C)CCS4(=O)=O)n1)CCN(CC1COC1)C2` [Example 216, 4-methyl-7-(2-((7-methyl-2-(oxetan-3-ylmethyl)-1,2,3,4-tetrahydroisoquinolin-6-yl)amino)-5-(trifluoromethyl)pyrimidin-4-yl)-3,4-dihydrothieno[2,3-f][1,4]thiazepin-5(2H)-one 1,1-dioxide] showed an IC50 of at most 5 nM. Work on `CN1CCS(=O)(=O)c2cc(-c3nc(Nc4ccc(N5CCN(CC6COC6)CC5)cc4Cl)ncc3C(F)(F)F)sc2C1=O` [Example 217, 7-(2-((2-chloro-4-(4-(oxetan-3-ylmethyl)piperazin-1-yl)phenyl)amino)-5-(trifluoromethyl)pyrimidin-4-yl)-4-methyl-3,4-dihydrothieno[2,3-f][1,4]thiazepin-5(2H)-one 1,1-dioxide] yielded an IC50 of at most 5 nM. `O=C1c2sc(-c3nc(Nc4cc5c(cc4C4CC4)CNCC5)ncc3C(F)(F)F)cc2S(=O)(=O)CCN1C1CCC1` [Example 218, 4-cyclobutyl-7-(2-((7-cyclopropyl-1,2,3,4-tetrahydroisoquinolin-6-yl)amino)-5-(trifluoromethyl)pyrimidin-4-yl)-3,4-dihydrothieno[2,3-f][1,4]thiazepin-5(2H)-one 1,1-dioxide] gave an IC50 of at most 5 nM. `O=C1c2sc(-c3nc(Nc4cc5c(cc4C4CC4)CNCC5)ncc3C(F)(F)F)cc2S(=O)(=O)CCN1C1COC1` [Example 219, 7-(2-((7-cyclopropyl-1,2,3,4-tetrahydroisoquinolin-6-yl)amino)-5-(trifluoromethyl)pyrimidin-4-yl)-4-(oxetan-3-yl)-3,4-dihydrothieno[2,3-f][1,4]thiazepin-5(2H)-one 1,1-dioxide] showed an IC50 of at most 5 nM. Work on `CCc1cc2c(cc1Nc1ncc(C(F)(F)F)c(-c3cc4c(s3)C(=O)N(C3CC3)CCS4(=O)=O)n1)CNCC2` [Example 220, 4-cyclopropyl-7-(2-((6-ethyl-1,2,3,4-tetrahydroisoquinolin-7-yl)amino)-5-(trifluoromethyl)pyrimidin-4-yl)-3,4-dihydrothieno[2,3-f][1,4]thiazepin-5(2H)-one 1,1-dioxide] yielded an IC50 of at most 5 nM. `CCc1cc2c(cc1Nc1ncc(C(F)(F)F)c(-c3cc4c(s3)C(=O)N(C3CCC3)CCS4(=O)=O)n1)CNCC2` [Example 221, 4-cyclobutyl-7-(2-((6-ethyl-1,2,3,4-tetrahydroisoquinolin-7-yl)amino)-5-(trifluoromethyl)pyrimidin-4-yl)-3,4-dihydrothieno[2,3-f][1,4]thiazepin-5(2H)-one 1,1-dioxide] gave an IC50 of at most 5 nM. `CCc1cc2c(cc1Nc1ncc(C(F)(F)F)c(-c3cc4c(s3)C(=O)N(C)CCS4(=O)=O)n1)CCN(CC)C2` [Example 222, 7-(2-((2,7-diethyl-1,2,3,4-tetrahydroisoquinolin-6-yl)amino)-5-(trifluoromethyl)pyrimidin-4-yl)-4-methyl-3,4-dihydrothieno[2,3-f][1,4]thiazepin-5(2H)-one 1,1-dioxide] was tested, and the IC50 was at most 5 nM. Work on `CCc1cc2c(cc1Nc1ncc(C(F)(F)F)c(-c3cc4c(s3)C(=O)N(C)CCS4(=O)=O)n1)CCN(CC1CC1)C2` [Example 223, 7-(2-((2-(cyclopropylmethyl)-7-ethyl-1,2,3,4-tetrahydroisoquinolin-6-yl)amino)-5-(trifluoromethyl)pyrimidin-4-yl)-4-methyl-3,4-dihydrothieno[2,3-f][1,4]thiazepin-5(2H)-one 1,1-dioxide] yielded an IC50 of at most 5 nM.
